Measurements published in patent US5830912A, “Derivatives of 6,8-difluoro-7-hydroxycoumarin” (Molecular Probes, Inc., priority 1996, dated 1998).
Like-named read-outs stand apart in the source and are kept apart here.

What was measured:
[1] = pH titration of fluorophores (pKa determination); type: physicochemical
Experimental: The dye of interest is first dissolved in a series of buffers that have each been calibrated using a pH meter. Acetate buffers are typically used in the range of pH 4-6, and phosphate buffers in the pH range 6-8. Absorption measurements are made using solutions that are approximately 10 μM in concentration, and fluorescence measurements are made using solutions that are approximately 1 μM in concentration. The absorption or emission data is then plotted versus pH to determine pKa values.

alkaline phosphatase = experiment: Fluorogenic substrate assay with alkaline phosphatase; type: biochemical; settings: pH 10.4 glycine buffer with 1 mM MgCl2, FIG. 4
Experimental: (§1) The utility of Compound 6 as a substrate for both alkaline and acid phosphatase is compared with the utility of the non-fluorinated analog, 4-methylumbelliferyl phosphate (MUP).
(§2) 1) Fluorescence yield: For an accurate comparison, the concentrations of the two substrates (initially approximately 10 mM) are matched by normalizing the absorbance of each substrate solution at 319 nm (pH 10) to a value of 0.52 (assuming the extinction coefficient of each substrate is approximately equivalent). The matched samples are then diluted 1:10 into excess enzyme buffer (10 units/mL), and the resulting fluorescence signal is recorded as a function of time (excitation 360 nm, emission 450 nm). The fluorescence yield obtained with acid phosphatase (pH 4.8, citrate buffer) is about 10 times greater when using Compound 6 than that obtained using MUP after one hour (FIG. 4). […] Using alkaline phosphatase (pH 10.4, glycine buffer with 1 mM MgCl2) the fluorescence yield obtained using Compound 6 is approximately 25% greater than that obtained using MUP (FIG. 4);

acid phosphatase = experiment: Fluorogenic substrate assay for acid phosphatase activity; type: biochemical
Experimental: as §1, §2
As above, the substrate samples are matched in concentration by normalizing absorbance values at 316 nm to a value of 0.525, then diluting 1:10.
3) Enzyme sensitivity: Serial dilutions of acid phosphatase are incubated with 50 μM of each substrate for 1 hour at pH 5, then fluorescence intensity at 460 nm is collected following 360 nm excitation.

[2] = Photobleaching during illumination in a fluorometer; type: physicochemical; settings: after 33 minutes of illumination in a fluorometer at the wavelength of maximum excitation
Experimental: | *Percent decrease in fluorescence intensity after 33 minutes of | illumination in a fluorometer at the wavelength of maximum excitation.

[3] = Quantum yield of selected dyes (Table 3); type: physicochemical
β-galactosidase = β-galactosidase (Escherichia coli, UniProt P00722); experiment: Fluorogenic substrate assay for β-galactosidase activity; type: biochemical; settings: for Km: read-out: Km (Michaelis-Menton constant), 0.01 units β-galactosidase, FIG. 9
Sequence of β-galactosidase (P00722 2-1024): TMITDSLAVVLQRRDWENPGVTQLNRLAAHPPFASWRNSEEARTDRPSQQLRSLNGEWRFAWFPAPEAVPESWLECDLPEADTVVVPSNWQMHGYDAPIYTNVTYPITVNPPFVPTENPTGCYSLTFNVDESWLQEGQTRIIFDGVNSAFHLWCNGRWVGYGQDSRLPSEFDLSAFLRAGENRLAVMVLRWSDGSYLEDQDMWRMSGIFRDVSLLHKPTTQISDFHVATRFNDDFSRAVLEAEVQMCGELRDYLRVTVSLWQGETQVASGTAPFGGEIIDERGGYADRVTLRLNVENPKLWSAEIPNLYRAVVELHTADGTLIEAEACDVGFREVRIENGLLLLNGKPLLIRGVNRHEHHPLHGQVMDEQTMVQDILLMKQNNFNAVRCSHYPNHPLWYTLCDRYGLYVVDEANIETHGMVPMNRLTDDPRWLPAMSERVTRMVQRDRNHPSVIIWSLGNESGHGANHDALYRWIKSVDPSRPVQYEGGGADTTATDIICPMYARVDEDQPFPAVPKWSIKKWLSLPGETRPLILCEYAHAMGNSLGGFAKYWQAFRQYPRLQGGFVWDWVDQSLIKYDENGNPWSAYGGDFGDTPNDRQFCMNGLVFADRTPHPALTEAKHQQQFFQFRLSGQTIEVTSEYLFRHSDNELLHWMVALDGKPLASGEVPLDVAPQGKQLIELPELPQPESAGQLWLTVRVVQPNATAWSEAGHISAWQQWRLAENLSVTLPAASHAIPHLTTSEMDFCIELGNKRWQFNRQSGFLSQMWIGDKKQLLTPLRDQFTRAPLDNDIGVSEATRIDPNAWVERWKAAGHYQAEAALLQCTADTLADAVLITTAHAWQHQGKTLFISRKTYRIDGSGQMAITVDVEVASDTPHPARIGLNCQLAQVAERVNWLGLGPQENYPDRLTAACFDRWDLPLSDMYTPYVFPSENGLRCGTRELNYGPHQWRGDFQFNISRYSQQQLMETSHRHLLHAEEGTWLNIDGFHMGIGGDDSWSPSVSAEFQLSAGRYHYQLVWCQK
Experimental: The utility of Compound 9 as a substrate for β-galactosidase is compared with the utility of the non-fluorinated analog, 4-methylumbelliferyl β-D-galactoside (MUG).
1) Fluorescence yield: For an accurate comparison, the concentrations of the two substrates (initially approximately 10 mM) are matched by normalizing the absorbance of each substrate solution at 316 nm (pH 8.3; 20 mM sodium bicarbonate) to a value of 0.5 (assuming the extinction coefficient of each substrate is approximately equivalent). The matched samples are then diluted 1:10 into β-galactosidase buffer pH 7.0, and 2 units enzyme/mL are added. The use of Compound 9 as an enzyme substrate produces an approximately 8-fold signal enhancement over the use of MUG, when the fluorescence is measured at the reaction pH. […] However, even after optimization, the signal derived using Compound 9 (at pH 7.0) is still approximately 4-fold greater than that obtained using MUG (at pH 10).
2) Km determination: In a series of experiments, increasing amounts of each substrate are incubated with 0.01 units of β-galactosidase for 1 hour. The resulting fluorescence is measured by exciting at 360 nm, and the emission is collected at 460 nm.
3) Reaction rate: The fluorescence yield is measured at high substrate concentrations (50 μM) (relative to low enzyme concentration (0.01 units/mL)) over the course of 1 hour to compare reaction rates.
4) Enzyme sensitivity: Serial dilutions of […] are incubated with 50 μM of each substrate for 1 hour at pH 7, then fluorescence intensity at 460 nm is collected (following 360 nm excitation).

[4] = 1 hour, excitation 360 nm, emission 460 nm

Structure (SMILES) | pKa [1] | Photobleaching: percent decrease in fluorescence intensity [2] | Quantum Yield (pH 9) [3] | also measured
Cc1c(CC(=O)O)c(=O)oc2c(F)c(O)c(F)cc12 [Compound 11, 6,8-difluoro-7-hydroxy-4-methylcoumarin-3-acetic acid] | ~ 6.2 | – | – | –
Cc1cc(=O)oc2c(F)c(OP(=O)(O)O)c(F)cc12 [Compound 6, 6,8-difluoro-7-hydroxy-4-methylcoumarin phosphate, free acid] | – | – | – | Fluorescence yield, increase over MUP (alkaline phosphatase): approximately 25%; Enzyme concentration detection threshold, fold lower than with MUP (acid phosphatase; acid phosphatase 0.00001 to 10 units/mL, 50 μM substrate, 1 hour, pH 5, FIGS. 6 and 7): approximately 10 fold; Initial reaction rate of hydrolysis compared with MUP (acid phosphatase; acid phosphatase 0.01 units/mL, large excess of substrate, pH 4.8 citrate buffer, FIG. 5): significantly higher; Fluorescence signal relative to MUP after raising both reaction solutions to pH 10 (acid phosphatase; acid phosphatase reaction at pH 4.8, then raised to pH 10): twice as large; Sensitivity to enzyme concentration compared with MUP after raising the pH to 10 (acid phosphatase; acid phosphatase, 50 μM substrate, 1 hour at pH 5, then pH 10): approximately twice as sensitive; Fluorescence yield relative to MUP (acid phosphatase; acid phosphatase, pH 4.8 citrate buffer, after one hour, excitation 360 nm, emission 450 nm, FIG. 4): approximately 10 times
Cc1cc(=O)oc2cc(O)c(F)cc12 | 6.4 | 20% | 0.64 | –
O=c1cc(C(F)(F)F)c2cc(F)c(O)c(F)c2o1 [Compound 20, 6,8-difluoro-7-hydroxy-4-trifluoromethylcoumarin] | 4.0 | 7% | 0.23 | –
O=c1cc(C(F)(F)F)c2ccc(O)cc2o1 | 7.3 | 31% | 0.34 | –
Cc1c(CC(=O)O)c(=O)oc2cc(O)ccc12 [7-hydroxy-4-methylcoumarin-3-acetic acid] | ~ 7.4 | – | – | –
Cc1cc(=O)oc2cc(O)ccc12 [7-hydroxy-4-methylcoumarin] | 7.9 | 22% | 0.63 | pKa ([1]; stated in Example 47 for the product of MUG deglycosylation): 7.8
Cc1cc(=O)oc2c(F)c(O)c(F)cc12 [Compound 4, 6,8-difluoro-7-hydroxy-4-methylcoumarin] | – | 5% | 0.89 | pKa ([1]; Table 3): 4.7
O=c1oc2c(F)c(O)c(F)cc2cc1-c1nc2ccccc2s1 [Compound 17, 3-benzothiazolyl-6,8-difluoro-7-hydroxycoumarin] | 5.0 | – | – | –
Cc1cc(=O)oc2cc(O)cc(F)c12 | 5.9 | 12% | 0.78 | –
Cc1cc(=O)oc2c(F)c(O)c(F)c(F)c12 | 4.2 | – | 0.54 | –
O=c1cc(C(F)(F)F)c2cc(F)c(O)cc2o1 | 5.7 | 18% | 0.44 | –
Cc1cc(=O)oc2c(F)c(O[C@@H]3O[C@H](CO)[C@H](O)[C@H](O)[C@H]3O)c(F)cc12 [Compound 9, 6,8-difluoro-7-hydroxy-4-methylcoumarin, β-D-galactopyranoside] | – | – | – | Reaction rate with β-galactosidase compared with MUG (β-galactosidase; 50 μM substrate, 0.01 units/mL enzyme, 1 hour, FIG. 10): react more rapidly; Enzyme concentration detection threshold, fold lower than with MUG (β-galactosidase; 50 μM substrate, 1 hour, pH 7, FIG. 11): approximately 10 fold; Km (β-galactosidase; [4]): ~25 µM; Fluorescence signal enhancement over MUG at the reaction pH (β-galactosidase; β-galactosidase 2 units/mL, pH 7.0, emission 460 nm, excitation 360 nm, FIG. 8): approximately 8 fold; Fluorescence signal (at pH 7.0) relative to MUG optimized at pH 10 (β-galactosidase; β-galactosidase 2 units/mL, MUG reaction raised to pH 10 with NaOH): approximately 4 fold
Cc1cc(=O)oc2cc(O[C@@H]3O[C@H](CO)[C@H](O)[C@H](O)[C@H]3O)ccc12 [MUG, 4-methylumbelliferyl β-D-galactoside] | – | – | – | Km (β-galactosidase; [4]): ~60 µM
